Laboratory results reported in ChEMBL document CHEMBL3885881, “DrugMatrix”.

Species: Rattus norvegicus
Assay: DrugMatrix - Regimen: Daily Repeat
Type: toxicity, organism-based, Sprague-Dawley
Design: regimen Daily Repeat, gender Male, age 6-8 weeks
Settings: in vivo, po, route oral GAVAGE, […]; for ABSOLUTE BASOPHIL / ABSOLUTE EOSINOPHIL / ABSOLUTE LYMPHOCYTE / ABSOLUTE MONOCYTE / ABSOLUTE SEGMENTED NEUTROPHIL / BASOPHIL / EOSINOPHIL / ERYTHROCYTE COUNT / HEMATOCRIT / HEMOGLOBIN / LEUKOCYTE COUNT / LYMPHOCYTE / MEAN CORPUSCULAR HEMOGLOBIN / MEAN CORPUSCULAR HEMOGLOBIN CONCENTRATION / MEAN CORPUSCULAR VOLUME / MONOCYTE / NEUTROPHIL / NUCLEATED RED BLOOD CELLS / PLATELET COUNT: tissue Blood; for ALANINE AMINOTRANSFERASE / ALBUMIN / ALKALINE PHOSPHATASE / ASPARTATE AMINOTRANSFERASE / BLOOD UREA NITROGEN / CARBON DIOXIDE / CHLORIDE / CHOLESTEROL / CREATINE PHOSPHOKINASE / CREATININE / GLUCOSE / LACTATE DEHYDROGENASE / LIPASE / PHOSPHORUS / POTASSIUM / SODIUM / TOTAL BILIRUBIN / TOTAL PROTEIN / URIC ACID: tissue Plasma
[1] = 5 mg/kg, 120 h, dose level Low, time 5 day
[2] = 13 mg/kg, 72 h, dose level High, time 3 day
[3] = 13 mg/kg, 120 h, dose level High, time 5 day

O=c1oc2ccccc2c(O)c1Cc1c(O)c2ccccc2oc1=O [DICUMAROL]
ABSOLUTE BASOPHIL [1]: 0 CELLS/uL
ABSOLUTE EOSINOPHIL [1]: 23.33 CELLS/uL
ABSOLUTE LYMPHOCYTE [1]: 6534.33 CELLS/uL
ABSOLUTE MONOCYTE [1]: 0 CELLS/uL
ABSOLUTE SEGMENTED NEUTROPHIL [1]: 809 CELLS/uL
BASOPHIL [1]: 0%
EOSINOPHIL [1]: 0.33%
ERYTHROCYTE COUNT [1]: 5.38 x10E6/uL
HEMATOCRIT [1]: 33.9%
HEMOGLOBIN [1]: 13.03 G/DL
LEUKOCYTE COUNT [1]: 7.37 x10E3/uL
LYMPHOCYTE [1]: 88.67%
MEAN CORPUSCULAR HEMOGLOBIN [1]: 24.27 pg
MEAN CORPUSCULAR HEMOGLOBIN CONCENTRATION [1]: 38.47 G/DL
MEAN CORPUSCULAR VOLUME [1]: 63 fL
MONOCYTE [1]: 0%
NEUTROPHIL [1]: 11%
NUCLEATED RED BLOOD CELLS [1]: 0 /100WBC
PLATELET COUNT [1]: 1062 x10E3/uL
ALANINE AMINOTRANSFERASE [1]: 70.33 u/L
ALBUMIN [1]: 4.17 G/DL
ALKALINE PHOSPHATASE [1]: 492.33 u/L
ASPARTATE AMINOTRANSFERASE [1]: 90.67 u/L
BLOOD UREA NITROGEN [1]: 13.67 mg/dL
CARBON DIOXIDE [1]: 31.67 mmol/L
CHLORIDE [1]: 100 MEQ/L
CHOLESTEROL [1]: 66.67 mg/dL
CREATINE PHOSPHOKINASE [1]: 491.67 u/L
CREATININE [1]: 0.15 mg/dL
GLUCOSE [1]: 160.33 mg/dL
LACTATE DEHYDROGENASE [1]: 134.33 u/L
LIPASE [1]: 9.33 u/L
PHOSPHORUS [1]: 9.47 mg/dL
POTASSIUM [1]: 5.06 MEQ/L
SODIUM [1]: 142.1 MEQ/L
TOTAL BILIRUBIN [1]: 0.17 mg/dL
TOTAL PROTEIN [1]: 6.07 G/DL
URIC ACID [1]: 0.43 mg/dL
ABSOLUTE BASOPHIL [2]: 0 CELLS/uL
ABSOLUTE EOSINOPHIL [2]: 43.33 CELLS/uL
ABSOLUTE LYMPHOCYTE [2]: 9740.67 CELLS/uL
ABSOLUTE MONOCYTE [2]: 39.67 CELLS/uL
ABSOLUTE SEGMENTED NEUTROPHIL [2]: 443 CELLS/uL
BASOPHIL [2]: 0%
EOSINOPHIL [2]: 0.33%
ERYTHROCYTE COUNT [2]: 5.24 x10E6/uL
HEMATOCRIT [2]: 32.97%
HEMOGLOBIN [2]: 12.9 G/DL
LEUKOCYTE COUNT [2]: 10.27 x10E3/uL
LYMPHOCYTE [2]: 95%
MEAN CORPUSCULAR HEMOGLOBIN [2]: 24.7 pg
MEAN CORPUSCULAR HEMOGLOBIN CONCENTRATION [2]: 39.13 G/DL
MEAN CORPUSCULAR VOLUME [2]: 63.17 fL
MONOCYTE [2]: 0.33%
NEUTROPHIL [2]: 4.33%
NUCLEATED RED BLOOD CELLS [2]: 0 /100WBC
PLATELET COUNT [2]: 923.67 x10E3/uL
ALANINE AMINOTRANSFERASE [2]: 65 u/L
ALBUMIN [2]: 3.83 G/DL
ALKALINE PHOSPHATASE [2]: 374.33 u/L
ASPARTATE AMINOTRANSFERASE [2]: 87.33 u/L
BLOOD UREA NITROGEN [2]: 11 mg/dL
CARBON DIOXIDE [2]: 35.33 mmol/L
CHLORIDE [2]: 98 MEQ/L
CHOLESTEROL [2]: 72 mg/dL
CREATINE PHOSPHOKINASE [2]: 494.33 u/L
CREATININE [2]: 0.14 mg/dL
GLUCOSE [2]: 143.67 mg/dL
LACTATE DEHYDROGENASE [2]: 159.67 u/L
LIPASE [2]: 9.33 u/L
PHOSPHORUS [2]: 11.1 mg/dL
POTASSIUM [2]: 6.17 MEQ/L
SODIUM [2]: 142.53 MEQ/L
TOTAL BILIRUBIN [2]: 0.17 mg/dL
TOTAL PROTEIN [2]: 5.83 G/DL
URIC ACID [2]: 0.5 mg/dL
ABSOLUTE BASOPHIL [3]: 0 CELLS/uL
ABSOLUTE EOSINOPHIL [3]: 0 CELLS/uL
ABSOLUTE LYMPHOCYTE [3]: 5152 CELLS/uL
ABSOLUTE MONOCYTE [3]: 45 CELLS/uL
ABSOLUTE SEGMENTED NEUTROPHIL [3]: 403 CELLS/uL
BASOPHIL [3]: 0%
EOSINOPHIL [3]: 0%
ERYTHROCYTE COUNT [3]: 5.48 x10E6/uL
HEMATOCRIT [3]: 33.3%
HEMOGLOBIN [3]: 12.65 G/DL
LEUKOCYTE COUNT [3]: 5.6 x10E3/uL
LYMPHOCYTE [3]: 92%
MEAN CORPUSCULAR HEMOGLOBIN [3]: 23.1 pg
MEAN CORPUSCULAR HEMOGLOBIN CONCENTRATION [3]: 38 G/DL
MEAN CORPUSCULAR VOLUME [3]: 60.75 fL
MONOCYTE [3]: 1%
NEUTROPHIL [3]: 7%
NUCLEATED RED BLOOD CELLS [3]: 1 /100WBC
PLATELET COUNT [3]: 1032 x10E3/uL
ALANINE AMINOTRANSFERASE [3]: 67.5 u/L
ALBUMIN [3]: 3.85 G/DL
ALKALINE PHOSPHATASE [3]: 329.5 u/L
ASPARTATE AMINOTRANSFERASE [3]: 96 u/L
BLOOD UREA NITROGEN [3]: 13 mg/dL
CARBON DIOXIDE [3]: 32.5 mmol/L
CHLORIDE [3]: 100 MEQ/L
CHOLESTEROL [3]: 64 mg/dL
CREATINE PHOSPHOKINASE [3]: 628 u/L
CREATININE [3]: 0.18 mg/dL
GLUCOSE [3]: 150.5 mg/dL
LACTATE DEHYDROGENASE [3]: 133 u/L
LIPASE [3]: 11 u/L
PHOSPHORUS [3]: 9.75 mg/dL
POTASSIUM [3]: 5.09 MEQ/L
SODIUM [3]: 145.4 MEQ/L
TOTAL BILIRUBIN [3]: 0.15 mg/dL
TOTAL PROTEIN [3]: 6 G/DL
URIC ACID [3]: 0.45 mg/dL
